Measured values from ChEMBL document CHEMBL5634113, “Synthesis, cytotoxic activity evaluation and mechanistic investigation of novel 3,7-diarylsubstituted 6-azaindoles” (Eur J Med Chem, 2023).
Where a name gives a salt, the structure may show the parent alone. The source made the active and inactive calls. The calls are words filed in the database; no cut-off is given here.

Experiments:
HT-1080 = assay: Cytotoxicity against human HT-1080 cells assessed as inhibition of cell growth incubated for 72 hrs by MTT assay; type: functional, cell-based; conditions: HT-1080, 72 h
MDA-MB-231 = assay: Cytotoxicity against human MDA-MB-231 cells assessed as inhibition of cell growth incubated for 72 hrs by MTT assay; type: functional, cell-based; conditions: MDA-MB-231, 72 h
[1] = Cytotoxicity against human AG1523 cells assessed as inhibition of cell growth incubated for 72 hrs by MTT assay; type: toxicity, cell-based
MCF7 = assay: Cytotoxicity against human MCF7 cells assessed as inhibition of cell growth incubated for 72 hrs by MTT assay; type: functional, cell-based; conditions: MCF7, 72 h
A-431 [2] = assay: Cytotoxicity against human A-431 cells assessed as inhibition of cell growth incubated for 72 hrs by MTT assay; type: functional, cell-based; conditions: A-431, 72 h
A-431 [3] = assay: Induction of cell cycle arrest in human A-431 cells assessed as accumulation of cells at S phase at 100 nM incubated for 24 hrs by RNase/PI staining based flow cytometry analysis (reference value: 43.35%); type: functional
A-431 [4] = assay: Induction of cell cycle arrest in human A-431 cells assessed as accumulation of cells at G0/G1 phase at 100 nM incubated for 24 hrs by RNase/PI staining based flow cytometry analysis (reference value: 40.98%); type: functional
A-431 [5] = assay: Induction of cell cycle arrest in human A-431 cells assessed as accumulation of cells at G2/M phase at 100 nM incubated for 24 hrs by RNase/PI staining based flow cytometry analysis (reference value: 15.66%); type: functional
A-431 [6] = assay: Induction of cell cycle arrest in human A-431 cells assessed as accumulation of cells at Sub-diploid phase at 100 nM incubated for 24 hrs by RNase/PI staining based flow cytometry analysis (reference value: 1.82%); type: functional
[7] = target: Mitogen-activated protein kinase 1 (Homo sapiens) (UniProt P28482); assay: Inhibition of ERK2 phosphorylation at Thr185/Tyr187 residues in human A-431 cells at IC50 measured after 0 to 24 hrs by multiplex immunoassay; type: cell-based; conditions: time 0-24 hrs
Mitogen-activated protein kinase 1 (Homo sapiens), sequence (P28482 whole entry): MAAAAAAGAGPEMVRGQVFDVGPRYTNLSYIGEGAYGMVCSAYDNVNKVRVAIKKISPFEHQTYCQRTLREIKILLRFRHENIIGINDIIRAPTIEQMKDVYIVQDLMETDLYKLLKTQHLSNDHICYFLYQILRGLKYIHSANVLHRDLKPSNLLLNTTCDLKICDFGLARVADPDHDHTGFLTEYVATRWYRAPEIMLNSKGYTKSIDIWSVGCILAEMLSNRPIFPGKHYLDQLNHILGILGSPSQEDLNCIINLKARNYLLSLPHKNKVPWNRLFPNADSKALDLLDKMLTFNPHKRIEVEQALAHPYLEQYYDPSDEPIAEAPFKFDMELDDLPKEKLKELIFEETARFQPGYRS

A-431 [8] = assay: Genotoxicity in human A-431 cells assessed as upregulation of phosphorylated Chk1 at Ser345 residue protein level at IC50 measured after 0 to 24 hrs by multiplex immunoassay; type: functional, cell-based; conditions: time 0-24 hrs
A-431 [9] = assay: Genotoxicity in human A-431 cells assessed as upregulation of phosphorylated p53 at Ser15 residue protein level at IC50 measured after 0 to 24 hrs by multiplex immunoassay; type: functional, cell-based; conditions: time 0-24 hrs
A-431 [10] = assay: Genotoxicity in human A-431 cells assessed as upregulation of phosphorylated Chk2 at Thr68 residue protein level at IC50 measured after 0 to 24 hrs by multiplex immunoassay; type: functional, cell-based; conditions: time 0-24 hrs
A-431 [11] = assay: Genotoxicity in human A-431 cells assessed as upregulation of p21 total protein level at IC50 measured after 0 to 24 hrs by multiplex immunoassay; type: functional, cell-based; conditions: time 0-24 hrs
A-431 [12] = assay: Cytotoxicity against human A-431 cells assessed as increase in mitotic nuclei measured after 6 to 24 hrs by DAPI staining based analysis; type: functional, cell-based; conditions: time 6-24 hrs
A-431 [13] = assay: Genotoxicity in human A-431 cells assessed as upregulation of ATR total protein level at IC50 measured after 0 to 24 hrs by multiplex immunoassay; type: functional, cell-based; conditions: time 0-24 hrs
[14] = target: Mitogen-activated protein kinase 3 (Homo sapiens) (UniProt P27361); assay: Inhibition of ERK1 phosphorylation at Thr202/Tyr204 residues in human A-431 cells at IC50 measured after 0 to 24 hrs by multiplex immunoassay; type: cell-based; conditions: time 0-24 hrs
Mitogen-activated protein kinase 3 (Homo sapiens), sequence (P27361 whole entry): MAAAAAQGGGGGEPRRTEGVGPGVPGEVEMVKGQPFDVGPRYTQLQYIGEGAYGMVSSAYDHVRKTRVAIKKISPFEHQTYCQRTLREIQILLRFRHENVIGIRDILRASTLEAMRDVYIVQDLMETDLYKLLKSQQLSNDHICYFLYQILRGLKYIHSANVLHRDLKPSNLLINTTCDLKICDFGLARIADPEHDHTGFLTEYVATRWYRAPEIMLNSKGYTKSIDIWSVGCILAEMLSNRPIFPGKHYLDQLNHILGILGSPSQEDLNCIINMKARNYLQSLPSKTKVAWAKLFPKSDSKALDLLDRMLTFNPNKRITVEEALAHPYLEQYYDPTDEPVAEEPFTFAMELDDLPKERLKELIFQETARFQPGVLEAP

[15] = target: Ribosomal protein S6 kinase alpha-1 (Homo sapiens) (UniProt Q15418); assay: Inhibition of p90 RSK phosphorylation at Ser380 residue in human A-431 cells at IC50 measured after 0 to 24 hrs by multiplex immunoassay; type: cell-based; conditions: time 0-24 hrs
Ribosomal protein S6 kinase alpha-1 (Homo sapiens), sequence (Q15418 whole entry): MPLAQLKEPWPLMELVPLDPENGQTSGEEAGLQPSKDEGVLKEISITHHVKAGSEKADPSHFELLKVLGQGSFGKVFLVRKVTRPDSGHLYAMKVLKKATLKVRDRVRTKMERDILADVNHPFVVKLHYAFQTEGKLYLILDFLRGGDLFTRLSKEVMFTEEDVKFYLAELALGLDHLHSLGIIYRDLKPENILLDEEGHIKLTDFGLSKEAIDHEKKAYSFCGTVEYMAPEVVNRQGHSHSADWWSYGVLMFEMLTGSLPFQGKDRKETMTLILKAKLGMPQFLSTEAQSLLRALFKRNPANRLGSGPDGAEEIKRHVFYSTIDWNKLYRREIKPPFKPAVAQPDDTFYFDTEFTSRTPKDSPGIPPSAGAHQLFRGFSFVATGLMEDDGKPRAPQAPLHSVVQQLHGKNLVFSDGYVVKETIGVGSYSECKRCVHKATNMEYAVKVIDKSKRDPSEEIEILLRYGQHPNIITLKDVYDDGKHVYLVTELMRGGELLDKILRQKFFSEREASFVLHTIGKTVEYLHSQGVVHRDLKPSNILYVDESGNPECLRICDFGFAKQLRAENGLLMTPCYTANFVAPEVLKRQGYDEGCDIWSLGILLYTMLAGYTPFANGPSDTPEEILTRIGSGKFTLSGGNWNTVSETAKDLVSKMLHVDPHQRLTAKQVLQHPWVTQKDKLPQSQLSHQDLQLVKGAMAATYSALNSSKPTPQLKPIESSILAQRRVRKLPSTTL

[16] = target: Cellular tumor antigen p53 (Homo sapiens) (UniProt P04637); assay: Activation of p53 in human A-431 cells assessed as increase in p53 phosphorylation at Ser15 residue at IC50 measured after 0 to 24 hrs by Western blot analysis; type: cell-based; conditions: filed as activator, time 0-24 hrs
Cellular tumor antigen p53 (Homo sapiens), sequence (P04637 whole entry, looked up): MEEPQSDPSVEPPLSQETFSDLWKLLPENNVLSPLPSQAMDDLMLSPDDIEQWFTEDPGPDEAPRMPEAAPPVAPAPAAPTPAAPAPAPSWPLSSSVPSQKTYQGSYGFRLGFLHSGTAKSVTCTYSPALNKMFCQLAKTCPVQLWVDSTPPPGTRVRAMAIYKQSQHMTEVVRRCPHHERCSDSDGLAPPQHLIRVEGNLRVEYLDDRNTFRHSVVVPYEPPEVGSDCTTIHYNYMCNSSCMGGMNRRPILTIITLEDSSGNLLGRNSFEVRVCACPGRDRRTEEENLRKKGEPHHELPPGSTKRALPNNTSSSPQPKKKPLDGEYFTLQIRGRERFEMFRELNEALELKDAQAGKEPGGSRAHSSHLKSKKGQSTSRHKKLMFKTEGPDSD

A-431 [17] = assay: Genotoxicity in human A-431 cells assessed as upregulation of MDM2 total protein level at IC50 measured after 0 to 24 hrs by multiplex immunoassay; type: functional, cell-based; conditions: time 0-24 hrs
[18] = target: Signal transducer and activator of transcription 3 (Homo sapiens) (UniProt P40763); assay: Inhibition of STAT3 phosphorylation at Ser727 residue in human A-431 cells at IC50 measured after 0 to 24 hrs by multiplex immunoassay; type: cell-based; conditions: time 0-24 hrs
Signal transducer and activator of transcription 3 (Homo sapiens), sequence (P40763 whole entry): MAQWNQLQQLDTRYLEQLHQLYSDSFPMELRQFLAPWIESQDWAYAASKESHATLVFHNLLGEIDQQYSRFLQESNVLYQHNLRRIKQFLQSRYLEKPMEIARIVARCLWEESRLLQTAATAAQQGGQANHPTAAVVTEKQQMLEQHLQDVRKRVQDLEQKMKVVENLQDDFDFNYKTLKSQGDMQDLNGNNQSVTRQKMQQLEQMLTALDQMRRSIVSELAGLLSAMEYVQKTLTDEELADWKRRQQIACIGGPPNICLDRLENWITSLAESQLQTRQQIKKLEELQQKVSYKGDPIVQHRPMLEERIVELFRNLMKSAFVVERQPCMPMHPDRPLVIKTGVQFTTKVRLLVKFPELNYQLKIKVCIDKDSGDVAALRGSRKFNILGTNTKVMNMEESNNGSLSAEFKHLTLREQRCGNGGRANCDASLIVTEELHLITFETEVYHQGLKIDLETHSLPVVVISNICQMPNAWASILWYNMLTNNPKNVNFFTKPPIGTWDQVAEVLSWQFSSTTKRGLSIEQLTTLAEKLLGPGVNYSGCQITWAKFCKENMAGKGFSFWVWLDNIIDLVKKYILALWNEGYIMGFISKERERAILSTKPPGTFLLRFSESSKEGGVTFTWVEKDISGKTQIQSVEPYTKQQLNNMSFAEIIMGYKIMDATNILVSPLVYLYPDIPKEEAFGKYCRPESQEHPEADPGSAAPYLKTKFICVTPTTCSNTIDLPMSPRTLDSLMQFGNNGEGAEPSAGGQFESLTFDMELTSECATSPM

[19] = target: Cyclin-dependent kinase inhibitor 1 (Homo sapiens) (UniProt P38936); assay: Activation of p21 waf1 in human A-431 cells assessed as increase in p21 waf1 protein level at IC50 measured after 0 to 24 hrs by Western blot analysis; type: cell-based; conditions: filed as activator, time 0-24 hrs
Cyclin-dependent kinase inhibitor 1 (Homo sapiens), sequence (P38936 whole entry): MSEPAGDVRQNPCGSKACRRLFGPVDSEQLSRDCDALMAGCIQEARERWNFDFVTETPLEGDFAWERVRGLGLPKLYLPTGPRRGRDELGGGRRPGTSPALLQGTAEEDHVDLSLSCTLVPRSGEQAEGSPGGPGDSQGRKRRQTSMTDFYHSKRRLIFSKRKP

[20] = target: Dual specificity mitogen-activated protein kinase kinase 1 (Homo sapiens) (UniProt Q02750); assay: Inhibition of MEK1 phosphorylation at Ser217/Ser221 residues in human A-431 cells at IC50 measured after 0 to 24 hrs by multiplex immunoassay; type: cell-based; conditions: time 0-24 hrs
Dual specificity mitogen-activated protein kinase kinase 1 (Homo sapiens), sequence (Q02750 whole entry): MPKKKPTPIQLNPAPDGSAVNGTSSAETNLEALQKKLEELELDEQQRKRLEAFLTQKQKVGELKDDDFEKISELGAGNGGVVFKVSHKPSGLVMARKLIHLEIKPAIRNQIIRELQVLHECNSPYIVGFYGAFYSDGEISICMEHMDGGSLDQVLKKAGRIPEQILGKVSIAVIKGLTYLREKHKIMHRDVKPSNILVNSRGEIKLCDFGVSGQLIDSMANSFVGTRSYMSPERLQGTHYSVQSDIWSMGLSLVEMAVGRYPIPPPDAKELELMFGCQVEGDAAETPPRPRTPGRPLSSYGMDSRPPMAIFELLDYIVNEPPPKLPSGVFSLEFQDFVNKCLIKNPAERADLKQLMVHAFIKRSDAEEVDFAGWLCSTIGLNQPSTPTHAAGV

SMILES	IC50 (HT-1080) [µM]	IC50 (MDA-MB-231) [µM]	IC50 at 72 h [1] [µM]	IC50 (MCF7) [µM]	IC50 (A-431 [2]) [µM]	also measured
Fc1cccc(-c2c[nH]c3c(-c4ccccc4)nccc23)c1	3.15	3.65	> 100	2.29	1.6	
COc1ccc(Cn2cc(-c3cccc(F)c3)c3ccnc(-c4ccc(C(C)=O)cc4)c32)cc1	13.4	89.2	> 100	9.7	13	
c1ccc(-c2c[nH]c3c(-c4ccccc4)nccc23)cc1	0.79	1.51	85.1	2.48	0.54	
COc1ccc(-c2nccc3c(-c4ccccc4)c[nH]c23)c(OC)c1	0.012	0.017	79.8	0.1	0.012	Activity (A-431 [3]): 10.27%; Activity (A-431 [4]): 26.41%; Activity (A-431 [5]): 63.32%; Activity (A-431 [6]): 40.02%
O=[N+]([O-])c1cccc(-c2nccc3c(-c4ccccc4)c[nH]c23)c1	3.06	4.39	> 100	3.34	2.6	
COc1ccc(Cn2cc(-c3ccccc3)c3ccnc(-c4ccc(C(C)=O)cc4)c32)cc1	41.6	> 100	> 100	24.5	> 100	
COc1ccc(-c2nccc3c(-c4cccc(F)c4)c[nH]c23)c(OC)c1	0.014	0.018	56.3	0.14	0.013	Activity (A-431 [3]): 12.97%; inhibition [7]: Active; Activity (A-431 [8]): Active; Activity (A-431 [9]): Active; Activity (A-431 [10]): Active; Activity (A-431 [11]): Active; Activity (A-431 [12]): Active; Activity (A-431 [13]): Active; inhibition [14]: Active; inhibition [15]: Active; Activity (A-431 [4]): 33%; Activity [16]: Active; Activity (A-431 [17]): Active; inhibition [18]: Active; Activity [19]: Active; inhibition [20]: Active; Activity (A-431 [5]): 54.04%; Activity (A-431 [6]): 29.86%
Clc1ccc(-c2nccc3c(-c4ccccc4)c[nH]c23)cc1	0.056	0.051	> 100	0.35	0.02	Activity (A-431 [3]): 39.69%; Activity (A-431 [4]): 20.59%; Activity (A-431 [5]): 39.73%; Activity (A-431 [6]): 33.54%
CC(=O)c1ccc(-c2nccc3c(-c4ccccc4)c[nH]c23)cc1	0.52	0.27	> 100	0.64	0.1	Activity (A-431 [3]): 20.32%; Activity (A-431 [4]): 14.74%; Activity (A-431 [5]): 64.95%; Activity (A-431 [6]): 39.37%
COc1cccc2c1C(=O)c1c(O)c3c(c(O)c1C2=O)C[C@@](O)(C(=O)CO)C[C@@H]3O[C@H]1C[C@H](N)[C@H](O)[C@H](C)O1 [DOXORUBICIN HYDROCHLORIDE]	0.007	0.096		0.144	0.009	
O=[N+]([O-])c1cccc(-c2nccc3c(-c4cccc(F)c4)c[nH]c23)c1	0.82	5.12	49	4.39	2.5	
COc1ccc(Cn2cc(-c3cccc(F)c3)c3ccnc(-c4ccc(Cl)cc4)c32)cc1	> 100	> 100	> 100	73.3	14.3	
COc1ccc(Cn2cc(-c3ccccc3)c3ccnc(-c4ccccc4)c32)cc1	13.1	22.5	> 100	13.4	9.89	
COc1ccc(Cn2cc(-c3ccccc3)c3ccnc(-c4ccc(Cl)cc4)c32)cc1	25.8	> 100	> 100	40.8	10.8	
COc1ccc(Cn2cc(-c3ccccc3)c3ccnc(-c4ccc(OC)cc4OC)c32)cc1	7.67	15.8	> 100	10.3	6.2	
CC(=O)c1ccc(-c2nccc3c(-c4cccc(F)c4)c[nH]c23)cc1	0.47	0.42	> 100	0.81	0.42	
COc1ccc(Cn2cc(-c3cccc(F)c3)c3ccnc(-c4ccc(OC)cc4OC)c32)cc1	8.61	18.1	> 100	11.4	5.32	
COc1ccc(Cn2cc(-c3cccc(F)c3)c3ccnc(-c4ccccc4)c32)cc1	14.1	49.8	> 100	12.9	9	
Fc1cccc(-c2c[nH]c3c(-c4ccc(Cl)cc4)nccc23)c1	0.087	0.13	78.6	0.41	0.11	
COc1ccc(Cn2cc(-c3cccc(F)c3)c3ccnc(-c4cccc([N+](=O)[O-])c4)c32)cc1	> 100	> 100	> 100	> 100	> 100	
COc1ccc(Cn2cc(-c3ccccc3)c3ccnc(-c4cccc([N+](=O)[O-])c4)c32)cc1	> 100	> 100	> 100	> 100	> 100	
